From ChEMBL document CHEMBL4229524, “Design, synthesis and preclinical evaluation of 5-methyl-N4-aryl-furo[2,3-d]pyrimidines as single agents with combination chemotherapy potential” (Bioorg Med Chem Lett, 2018)

Legend:
SK-OV-3 = experiment: Antiproliferative activity against human SKOV3 cells after 72 hrs by sulforhodamine B assay; type: functional, cell-based; conditions: SK-OV-3, 72 h
[1] = Antiproliferative activity against human wild-type Hela-beta3 cells after 72 hrs by sulforhodamine B assay; type: functional
[2] = target: Epidermal growth factor receptor (Homo sapiens, UniProt P00533); type: cell-based
[3] = target: Platelet-derived growth factor receptor beta (Homo sapiens, UniProt P09619); experiment: Inhibition of PDGF-BB-induced PDGFRbeta activation in human SH-SY5Y cells pretreated for 60 mins followed by PDGF-BB addition and measured after 10 mins by ELISA; type: cell-based
[4] = target: Vascular endothelial growth factor receptor 2 (Homo sapiens, UniProt P35968); type: cell-based
A-431 = experiment: Cytotoxicity against human A431 cells over-expressing EGFR; type: functional, cell-based
Chorioallantoic membrane [5] = experiment: Antiangiogenic activity in Leghorn chicken embryo chorioallantoic membrane after 40 hrs by microscopic analysis; type: functional, tissue-based; conditions: Gallus gallus
Chorioallantoic membrane [6] = experiment: Potency index, ratio of sunitinib IC50 to test compound IC50 for antiangiogenic activity in Leghorn chicken embryo chorioallantoic membrane; type: functional, tissue-based; conditions: Gallus gallus

Epidermal growth factor receptor, sequence (P00533 whole entry): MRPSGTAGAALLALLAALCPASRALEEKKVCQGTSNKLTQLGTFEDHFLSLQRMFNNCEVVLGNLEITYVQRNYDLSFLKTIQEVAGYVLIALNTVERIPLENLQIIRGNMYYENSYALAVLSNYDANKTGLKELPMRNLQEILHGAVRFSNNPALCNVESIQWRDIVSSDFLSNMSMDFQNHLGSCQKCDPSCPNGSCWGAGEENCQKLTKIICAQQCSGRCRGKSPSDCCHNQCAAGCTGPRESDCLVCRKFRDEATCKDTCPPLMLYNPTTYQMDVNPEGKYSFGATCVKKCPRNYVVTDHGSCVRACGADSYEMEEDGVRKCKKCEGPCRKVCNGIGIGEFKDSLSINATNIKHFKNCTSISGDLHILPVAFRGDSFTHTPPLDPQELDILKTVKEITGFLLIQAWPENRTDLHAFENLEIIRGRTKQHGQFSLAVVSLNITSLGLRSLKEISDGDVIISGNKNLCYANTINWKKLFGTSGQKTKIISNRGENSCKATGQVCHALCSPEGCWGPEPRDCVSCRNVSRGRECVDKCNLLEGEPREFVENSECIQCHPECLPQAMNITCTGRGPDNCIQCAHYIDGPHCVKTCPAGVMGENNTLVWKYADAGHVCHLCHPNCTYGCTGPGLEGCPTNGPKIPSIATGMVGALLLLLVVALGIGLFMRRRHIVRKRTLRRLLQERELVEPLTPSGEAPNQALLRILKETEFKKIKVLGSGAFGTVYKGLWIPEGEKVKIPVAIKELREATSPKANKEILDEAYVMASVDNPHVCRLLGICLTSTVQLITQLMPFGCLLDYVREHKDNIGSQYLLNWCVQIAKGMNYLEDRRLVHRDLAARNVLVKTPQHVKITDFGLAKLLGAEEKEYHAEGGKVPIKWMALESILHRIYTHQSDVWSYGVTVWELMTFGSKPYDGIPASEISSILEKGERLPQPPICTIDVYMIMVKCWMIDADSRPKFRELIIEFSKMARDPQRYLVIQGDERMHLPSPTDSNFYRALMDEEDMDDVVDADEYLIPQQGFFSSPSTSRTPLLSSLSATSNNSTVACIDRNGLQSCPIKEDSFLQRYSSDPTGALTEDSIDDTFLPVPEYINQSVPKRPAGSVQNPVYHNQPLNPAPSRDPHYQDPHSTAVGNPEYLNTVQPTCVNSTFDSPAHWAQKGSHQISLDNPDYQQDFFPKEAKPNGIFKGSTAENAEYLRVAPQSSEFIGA
Vascular endothelial growth factor receptor 2, sequence (P35968 whole entry): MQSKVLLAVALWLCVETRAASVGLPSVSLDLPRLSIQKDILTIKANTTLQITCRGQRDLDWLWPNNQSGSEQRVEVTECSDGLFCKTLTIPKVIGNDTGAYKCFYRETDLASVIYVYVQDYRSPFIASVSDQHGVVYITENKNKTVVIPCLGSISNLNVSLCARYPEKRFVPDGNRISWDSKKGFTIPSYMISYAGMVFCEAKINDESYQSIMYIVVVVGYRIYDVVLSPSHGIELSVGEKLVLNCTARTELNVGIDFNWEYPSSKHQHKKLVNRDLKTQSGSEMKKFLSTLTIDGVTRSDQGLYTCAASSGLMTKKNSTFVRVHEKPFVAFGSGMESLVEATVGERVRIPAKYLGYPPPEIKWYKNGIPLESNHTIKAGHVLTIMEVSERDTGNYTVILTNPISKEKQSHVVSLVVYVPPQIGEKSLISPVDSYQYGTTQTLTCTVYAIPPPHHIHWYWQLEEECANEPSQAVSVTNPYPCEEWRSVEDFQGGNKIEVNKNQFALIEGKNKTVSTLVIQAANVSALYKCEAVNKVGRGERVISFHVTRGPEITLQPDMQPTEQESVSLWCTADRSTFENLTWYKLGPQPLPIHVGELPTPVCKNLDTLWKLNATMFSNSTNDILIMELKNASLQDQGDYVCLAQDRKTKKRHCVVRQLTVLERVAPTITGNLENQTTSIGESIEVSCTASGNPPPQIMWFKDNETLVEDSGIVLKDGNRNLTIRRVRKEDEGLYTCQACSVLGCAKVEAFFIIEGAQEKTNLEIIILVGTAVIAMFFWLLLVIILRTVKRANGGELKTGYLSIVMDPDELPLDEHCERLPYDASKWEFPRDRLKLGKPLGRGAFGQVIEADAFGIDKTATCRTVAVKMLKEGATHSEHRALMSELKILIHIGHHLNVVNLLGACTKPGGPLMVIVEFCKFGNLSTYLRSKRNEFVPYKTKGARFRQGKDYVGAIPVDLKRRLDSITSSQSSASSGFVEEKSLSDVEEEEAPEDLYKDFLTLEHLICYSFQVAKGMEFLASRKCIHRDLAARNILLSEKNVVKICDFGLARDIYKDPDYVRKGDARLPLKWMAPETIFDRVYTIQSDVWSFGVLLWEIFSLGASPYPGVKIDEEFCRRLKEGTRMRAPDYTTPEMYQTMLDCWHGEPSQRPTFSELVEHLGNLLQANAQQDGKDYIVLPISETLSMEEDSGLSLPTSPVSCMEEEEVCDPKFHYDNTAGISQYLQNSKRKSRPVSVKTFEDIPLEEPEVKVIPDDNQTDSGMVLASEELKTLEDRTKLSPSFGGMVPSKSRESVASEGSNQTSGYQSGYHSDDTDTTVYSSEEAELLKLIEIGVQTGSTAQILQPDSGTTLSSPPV
Platelet-derived growth factor receptor beta, sequence (P09619 whole entry): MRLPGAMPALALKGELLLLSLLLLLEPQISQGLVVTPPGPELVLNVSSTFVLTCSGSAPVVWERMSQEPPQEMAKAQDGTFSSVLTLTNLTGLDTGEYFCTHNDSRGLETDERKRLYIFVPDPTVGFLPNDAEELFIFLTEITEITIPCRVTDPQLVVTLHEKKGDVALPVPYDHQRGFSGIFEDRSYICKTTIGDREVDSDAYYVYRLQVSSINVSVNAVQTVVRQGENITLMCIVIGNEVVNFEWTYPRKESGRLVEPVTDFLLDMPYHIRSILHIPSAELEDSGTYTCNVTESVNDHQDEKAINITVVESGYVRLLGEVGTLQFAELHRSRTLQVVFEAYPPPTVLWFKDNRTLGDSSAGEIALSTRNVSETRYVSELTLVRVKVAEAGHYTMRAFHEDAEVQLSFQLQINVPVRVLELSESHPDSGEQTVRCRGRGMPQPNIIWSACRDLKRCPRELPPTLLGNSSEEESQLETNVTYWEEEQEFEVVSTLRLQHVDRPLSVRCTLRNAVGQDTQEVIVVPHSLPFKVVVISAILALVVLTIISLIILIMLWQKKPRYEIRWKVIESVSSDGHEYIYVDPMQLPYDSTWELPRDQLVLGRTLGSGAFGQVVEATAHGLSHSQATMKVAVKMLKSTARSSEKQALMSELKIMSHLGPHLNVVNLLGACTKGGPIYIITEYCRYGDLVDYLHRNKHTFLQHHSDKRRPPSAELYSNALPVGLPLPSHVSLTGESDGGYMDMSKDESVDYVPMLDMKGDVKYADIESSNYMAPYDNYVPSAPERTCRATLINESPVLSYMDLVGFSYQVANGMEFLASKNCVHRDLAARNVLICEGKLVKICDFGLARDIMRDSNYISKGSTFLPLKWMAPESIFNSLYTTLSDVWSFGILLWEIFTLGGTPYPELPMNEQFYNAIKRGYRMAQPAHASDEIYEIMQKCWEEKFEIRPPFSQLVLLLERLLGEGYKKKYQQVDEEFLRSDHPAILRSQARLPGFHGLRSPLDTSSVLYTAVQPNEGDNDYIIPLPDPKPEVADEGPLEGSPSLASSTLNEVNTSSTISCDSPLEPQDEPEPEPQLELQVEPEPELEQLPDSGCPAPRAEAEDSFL

| IC50 (SK-OV-3) [nM] | IC50 [2] [nM] | IC50 [3] [nM] | IC50 [4] [nM] | SMILES | IC50 [1] [nM] | IC50 (A-431) [nM] | IC50 (Chorioallantoic membrane [5]) [nM] | Ratio IC50 (Chorioallantoic membrane [6]) |
| --- | --- | --- | --- | --- | --- | --- | --- | --- |
| 5 | – | – | – | CC(=O)O[C@H]1C(=O)[C@@]2(C)[C@H]([C@H](OC(=O)c3ccccc3)[C@]3(O)C[C@H](OC(=O)[C@H](O)[C@@H](NC(=O)c4ccccc4)c4ccccc4)C(C)=C1C3(C)C)[C@]1(OC(C)=O)CO[C@@H]1C[C@@H]2O [PACLITAXEL] | 24 | – | – | – |
| – | 10.1 | 42.6 | 23.4 | COc1ccc(N(c2ncnc3occ(C)c23)C(C)C)cc1 | – | 4.8 | 480 | – |
| – | 4 | 28.9 | 7.8 | CCc1ccc(N(C)c2ncnc3occ(C)c23)cc1 | – | 1.4 | 287 | 4 |
